Earlier results, collected in US11091809B2, “Molecular diagnostic test for cancer” (ALMAC DIAGNOSTICS LIMITED, priority 2012, dated 2021).

Columns and labels:
[1] = test system: ovarian cancer; conditions: bevacizumab monotherapy
[2] = test system: renal cancer; conditions: bevacizumab monotherapy
[3] = test system: rectal cancer; conditions: bevacizumab monotherapy
[4] = test system: primary peritoneal carcinoma, fallopian tube carcinoma, and epithelial ovarian carcinoma; conditions: ICON7

## bevacizumab: recombinant humanised version of a murine anti-human VEGF monoclonal antibody
[1]
  patients showing partial regression: 21%
[2]
  patients showing partial regression: 10%
[3]
  patients showing partial regression: 33%
[4]; bevacizumab group, patients at high risk of progression (FIGO stage IV or stage III with greater than 1.0 cm residual disease after debulking surgery)
  hazard ratio for death: 0.64
[4]; standard chemotherapy (carboplatin and paclitaxel) and bevacizumab vs standard chemotherapy
  hazard ratio for progression-free survival: 0.81
